Earlier results, collected in US9920347B2, “Methods for producing virus particles with simplified glycosylation of surface proteins” (priority 2010, dated 2018).

Key:
[1] = target: alpha-glucosidase amyloglucosidase (Aspergillus niger, UniProt P69328); conditions: read-out: concentration giving 50% inhibition of amyloglucosidase
intact cells = conditions: glycoproteins with Man7-9(GlcNAc)2 structures accumulate
[2] = system: animal Golgi enzyme, mannosidase I
[3] = system: rat epididymal α-mannosidase
Golgi mannosidase II = target: T1, Golgi mannosidase II (Homo sapiens, UniProt Q16706)
T1 sequence (Q16706 1-1144): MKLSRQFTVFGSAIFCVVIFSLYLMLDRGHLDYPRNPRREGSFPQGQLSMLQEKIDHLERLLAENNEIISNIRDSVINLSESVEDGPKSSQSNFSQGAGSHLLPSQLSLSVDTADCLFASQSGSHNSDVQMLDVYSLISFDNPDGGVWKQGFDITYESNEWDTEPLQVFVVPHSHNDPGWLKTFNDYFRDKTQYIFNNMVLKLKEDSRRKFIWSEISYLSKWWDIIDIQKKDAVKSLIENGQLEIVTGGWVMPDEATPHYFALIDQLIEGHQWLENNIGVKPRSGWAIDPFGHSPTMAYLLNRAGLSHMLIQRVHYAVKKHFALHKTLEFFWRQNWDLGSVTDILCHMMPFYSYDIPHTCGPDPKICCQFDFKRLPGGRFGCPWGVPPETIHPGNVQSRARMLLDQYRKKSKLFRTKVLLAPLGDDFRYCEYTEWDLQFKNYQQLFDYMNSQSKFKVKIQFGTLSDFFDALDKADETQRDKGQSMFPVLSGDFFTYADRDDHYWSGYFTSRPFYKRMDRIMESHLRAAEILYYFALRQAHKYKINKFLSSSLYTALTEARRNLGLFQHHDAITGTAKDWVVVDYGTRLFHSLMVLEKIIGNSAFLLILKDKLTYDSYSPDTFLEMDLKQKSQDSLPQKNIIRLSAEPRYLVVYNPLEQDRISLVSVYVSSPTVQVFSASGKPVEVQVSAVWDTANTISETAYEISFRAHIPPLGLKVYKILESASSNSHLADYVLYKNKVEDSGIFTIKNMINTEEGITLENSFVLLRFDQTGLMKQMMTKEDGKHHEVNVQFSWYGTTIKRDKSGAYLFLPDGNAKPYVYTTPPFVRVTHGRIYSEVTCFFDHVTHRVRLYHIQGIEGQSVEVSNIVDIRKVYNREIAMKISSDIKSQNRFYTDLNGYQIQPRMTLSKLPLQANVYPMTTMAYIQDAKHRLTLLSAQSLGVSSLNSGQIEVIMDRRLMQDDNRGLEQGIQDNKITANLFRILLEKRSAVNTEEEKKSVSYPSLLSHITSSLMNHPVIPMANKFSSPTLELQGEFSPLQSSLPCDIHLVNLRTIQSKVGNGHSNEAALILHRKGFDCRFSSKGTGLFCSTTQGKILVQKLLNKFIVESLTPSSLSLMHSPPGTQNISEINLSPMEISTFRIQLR

Chain of alpha-glucosidase amyloglucosidase (P69328 25-640): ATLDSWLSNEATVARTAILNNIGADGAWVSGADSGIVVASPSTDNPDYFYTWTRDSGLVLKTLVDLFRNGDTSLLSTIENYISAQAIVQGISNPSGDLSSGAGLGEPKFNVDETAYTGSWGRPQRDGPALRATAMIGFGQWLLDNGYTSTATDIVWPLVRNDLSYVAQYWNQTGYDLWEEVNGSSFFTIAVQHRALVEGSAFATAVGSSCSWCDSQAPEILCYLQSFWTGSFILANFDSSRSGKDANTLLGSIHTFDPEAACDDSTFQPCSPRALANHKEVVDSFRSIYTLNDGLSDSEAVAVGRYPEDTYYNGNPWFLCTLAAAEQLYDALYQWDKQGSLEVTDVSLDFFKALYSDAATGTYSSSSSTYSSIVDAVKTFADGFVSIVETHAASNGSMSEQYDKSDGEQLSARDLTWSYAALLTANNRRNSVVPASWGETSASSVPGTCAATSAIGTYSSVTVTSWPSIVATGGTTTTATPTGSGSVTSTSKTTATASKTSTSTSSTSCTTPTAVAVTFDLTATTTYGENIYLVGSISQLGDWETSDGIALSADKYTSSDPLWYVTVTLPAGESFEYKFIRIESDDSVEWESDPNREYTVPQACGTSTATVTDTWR

SMILES: OC[C@@H]1[C@@H](O)[C@H](O)[C@H]2[C@@H](O)CCN21 [Australine]
- inhibition of beta-galactosidase (beta-galactosidase): did not inhibit
- inhibition of beta-mannosidase (beta-mannosidase): did not inhibit
- inhibition of alpha-mannosidase (alpha-mannosidase): did not inhibit
- IC50 [1]: 5.8 µM
- inhibition of alpha-galactosidase (alpha-galactosidase): did not inhibit
- inhibition of beta-glucosidase (beta-glucosidase): did not inhibit

SMILES: O[C@H]1[C@H](O)[C@@H](O)CN2CC[C@H](O)[C@H]12 [Castanospermine]
- inhibition of dengue virus infection (dengue virus): inhibits
- inhibition of alpha-glucosidase activities (alpha-glucosidase): inhibits

SMILES: OC[C@H]1NC[C@@H](O)[C@@H](O)[C@@H]1O [Deoxymannojirimycin]
- prevention of formation of complex chains (cultured mammalian cells; 50 μg/ml): does not prevent the formation of all complex chains
- effect on synthesis of complex types of N-linked oligosaccharides (intact cells): blocked the synthesis of complex types of N-linked oligosaccharides
- inhibition of rat liver mammosidase I (rat liver mammosidase I): fairly potent inhibitor

SMILES: O=C1N[C@@H]2[C@@H](O)[C@@H](O)[C@H](O)[C@@H](CO)N2C1=O [Kifunensine]
- shift of N-linked oligosaccharides from complex chains to Man9(GlcNAc)2 structures (cultured mammalian cells; 1 μg/ml or higher): complete shift
- inhibition of mannosidase I [2]: inhibits

SMILES: CS[C@@H]1[C@@H](N)[C@@H](O)[C@@H](O)[C@H]1O [Mannostatin A]
- inhibition of rat epididymal α-mannosidase [3]: potent inhibitor

SMILES: O[C@H]1[C@H]2[C@H](O)CCCN2C[C@H]1O [Swainsonine]
- inhibition of Golgi mannosidase II (Golgi mannosidase II): potent inhibitor
- effect on mannosidase 1 (mannosidase 1): no effect
